Patent US12268694B2, “Combination pharmaceutical agents as RSV inhibitors” (Enanta Pharmaceuticals, Inc., priority 2017, dated 2025)
Where two headings read alike, the source gives them in different places.

Tested on: genotype A, "Long" strain RSV
Assay: RSV-A assay: CPE protection in HEp-2 cells, ATPlite readout
Type: cell-based, human respiratory syncytial virus
Procedure, shortened: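 EC50 derives from ATPlite luminescence after 5-day culture of RSV Long-infected (MOI 0.1) HEp-2 cells, seeded 8,000/well, exposed to duplicate 2-fold compound series. CC50 comes from an identical plate receiving medium instead of virus.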

[1] = HEp-2 cells, RSV-A Long strain, ATPlite readout, read-out: Human RSV-A (“Long” strain) EC50
[2] = human respiratory syncytial virus, HEp-2, read-out: Human RSV-A (“Long” strain) EC50

For `O=C1Nc2ccccc2C(c2ccccc2)=N[C@H]1Nc1nnc(-c2cn(CC(F)(F)F)nc2N2CCOCC2)o1` [Example 488], the EC50 [1] was < 400 nM.

`O=C1Nc2ccccc2C(c2ccccc2)=NC1Nc1nnc(-c2ccc(F)nc2N2CCOCC2)o1` (stereo not shown) [Example 149] was tested, and the EC50 [1] was 400 to 800 nM.

For `O=C1Nc2ccccc2C(c2ccccc2)=N[C@H]1Nc1nnc(-c2nc(C(F)(F)F)sc2N2CCO[C@@H]3C[C@@H]32)o1` [Example 486], the EC50 [1] was > 800 nM.

For `O=C1Nc2c(F)cccc2C(c2ccccc2)=N[C@@H]1Nc1nnc(-c2ncc(C(F)(F)F)cc2N2CCOCC2)o1` [Example 360], the EC50 [1] was < 400 nM.

In the case of `O=C1Nc2ccccc2C(c2ccccc2)=NC1Nc1nnc(-c2ccc(-n3cncn3)cc2N2CCOCC2)o1` (stereo not shown) [Example 128], the EC50 [2] is reported as 400 to 800 nM.

In the case of `O=C1Nc2ccccc2C(c2ccccc2)=NC1Nc1nnc(-c2cccc(-n3ccnc3)c2)o1` (stereo not shown) [Example 212], the EC50 [2] is reported as > 800 nM.

With `O=C1Nc2ccccc2C(c2ccccc2)=N[C@@H]1Nc1nnc(-c2oc3cccc(F)c3c2N2CCOCC2)o1` [Example 477] the EC50 [2] was < 400 nM.

`O=C1Nc2ccccc2C(c2ccccc2)=N[C@@H]1Nc1nnc(-c2cnc(N3CC4CCC(C3)O4)nc2)o1` [Example 166] was tested, and the EC50 [2] was > 800 nM.

`O=C1Nc2ccccc2C(c2ccccc2)=N[C@@H]1Nc1nnc(-c2ncc(C(F)(F)F)cc2N2CCC(O)CC2)o1` [Example 328] was tested, and the EC50 [2] was > 800 nM.

For `O=C1Nc2ccccc2C(c2ccccc2)=N[C@@H]1Nc1nnc(-c2nc(C(F)(F)F)sc2N2CCO[C@@H]3C[C@@H]32)o1` [Example 484], the EC50 [1] was < 400 nM.

In the case of `O=C1Nc2ccccc2C(c2ccccc2)=N[C@@H]1Nc1nnc(-c2ncc(C(F)(F)F)cc2N[C@@H]2CCOC2)o1` [Example 464], the EC50 [2] is reported as < 400 nM.

`N#Cc1ccc(N2CCOCC2)c(-c2nnc(N[C@H]3N=C(c4ccccc4)c4ccccc4NC3=O)o2)n1` [Example 324] was tested, and the EC50 [2] was < 400 nM.

`N#Cc1ccn2ncc(-c3nnc(N[C@H]4N=C(c5ccccc5)c5ccccc5NC4=O)o3)c2c1` [Example 441] was tested, and the EC50 [2] was > 800 nM.

For `O=C1Nc2ccccc2C(c2ccccc2)=NC1Nc1nnc(-c2cccnc2N2CCn3ncnc3C2)o1` (stereo not shown) [Example 270], the EC50 [2] was > 800 nM.

For `COc1ccn2ncc(-c3nnc(N[C@H]4N=C(c5ccccc5)c5ccccc5NC4=O)o3)c2c1` [Example 410], the EC50 [2] was > 800 nM.

`COC1CN(c2ncccc2-c2nnc(NC3N=C(c4ccccc4)c4ccccc4NC3=O)o2)C1` (stereo not shown) [Example 258] was tested, and the EC50 [2] was > 800 nM.

For `O=C1Nc2ccccc2C(c2ccccc2)=N[C@@H]1Nc1nnc(-c2ncc(C(F)(F)F)cc2-c2ccncc2)o1` [Example 282], the EC50 [2] was > 800 nM.

`Cc1cc(-c2nnc(NC3N=C(c4ccccc4)c4ccccc4NC3=O)o2)ccc1-n1cncn1` (stereo not shown) [Example 217] showed an EC50 [2] of 400 to 800 nM.

With `Cc1nc(-c2nnc(N[C@H]3N=C(c4ccccc4)c4ccccc4NC3=O)o2)c(Cl)s1` [Example 344] the EC50 [2] was > 800 nM.

With `COC1CN(c2cc(C(F)(F)F)cnc2-c2nnc(N[C@H]3N=C(c4ccccc4)c4ccccc4NC3=O)o2)C1` [Example 271] the EC50 [2] was > 800 nM.

In the case of `COc1ccc(-c2ccc(NC3N=C(c4ccccc4)c4ccccc4NC3=O)nn2)cc1` (stereo not shown) [Example 376], the EC50 [2] is reported as > 800 nM.

With `N#Cc1ccc(-c2nnc(N[C@H]3N=C(c4ccccc4)c4ccccc4NC3=O)o2)c(-c2ccoc2)c1` [Example 319] the EC50 [2] was > 800 nM.

`CNc1cc(C(F)(F)F)cnc1-c1nnc(N[C@H]2N=C(c3ccccc3)c3ccccc3NC2=O)o1` [Example 307] was tested, and the EC50 [2] was > 800 nM.

In the case of `COCCNc1cc(C(F)(F)F)cnc1-c1nnc(N[C@H]2N=C(c3ccccc3)c3ccccc3NC2=O)o1` [Example 305], the EC50 [2] is reported as < 400 nM.

`O=C1Nc2ccccc2C(c2ccccc2)=N[C@@H]1Nc1nnc(-c2occc2N2CCOCC2)o1` [Example 348] was tested, and the EC50 [2] was < 400 nM.

`O=C1Nc2ccccc2C(c2ccccc2)=N[C@@H]1Nc1nnc(-c2cn(CC(F)(F)F)nc2N2CCOCC2)o1` [Example 489] was tested, and the EC50 [1] was > 800 nM.

`CC(C)(O)c1nnc(NC2N=C(c3ccccc3)c3ccccc3NC2=O)o1` (stereo not shown) [Example 213] was tested, and the EC50 [2] was > 800 nM.

With `O=C1Nc2ccccc2C(c2ccccc2)=N[C@@H]1Nc1nnc(-c2cnc(N3CCOCC3)nc2)o1` [Example 165] the EC50 [2] was 400 to 800 nM.

With `O=C1Nc2ccccc2C(c2ccccc2)=NC1Nc1nnc(-c2cc(F)ccc2N2CCOCC2)o1` (stereo not shown) [Example 119] the EC50 [2] was 400 to 800 nM.

`Cc1nc(-c2nnc(N[C@H]3N=C(c4ccccc4)c4ccccc4NC3=O)o2)cs1` [Example 343] was tested, and the EC50 [2] was > 800 nM.

For `COc1ccc(-c2nnc(NC3N=C(c4ccccc4)c4ccccc4NC3=O)o2)nc1Cl` (stereo not shown) [Example 109], the EC50 [2] was > 800 nM.

In the case of `O=C1Nc2ccccc2C(c2ccccc2)=NC1Nc1nnc(-c2ccccc2N2CCS(=O)(=O)CC2)o1` (stereo not shown) [Example 240], the EC50 [2] is reported as > 800 nM.

With `CC1(c2nnc(NC3N=C(c4ccccc4)c4ccccc4NC3=O)o2)CC1` (stereo not shown) [Example 195] the EC50 [2] was > 800 nM.

For `CC1(Nc2cc(C(F)(F)F)cnc2-c2nnc(N[C@H]3N=C(c4ccccc4)c4ccccc4NC3=O)o2)CCOC1` (stereo partly shown) [Example 424], the EC50 [2] was > 800 nM.

Work on `COCCN1CCCn2ncc(-c3nnc(N[C@H]4N=C(c5ccccc5)c5ccccc5NC4=O)o3)c21` [Example 438] yielded an EC50 [2] of 400 to 800 nM.

For `O=C1Nc2c(F)cccc2C(c2ccccc2)=N[C@H]1Nc1nnc(-c2ccccc2N2CCOCC2)o1` [Example 355b], the EC50 [2] was > 800 nM.

With `CC(C)(c1nc(-c2nnc(N[C@H]3N=C(c4ccccc4)c4ccccc4NC3=O)o2)c(N2CCOCC2)s1)N1CCOCC1` [Example 459] the EC50 [2] was < 400 nM.

For `O=C1Nc2ccccc2C(c2ccccc2)=NC1Nc1ncc(-c2ccccc2)cn1` (stereo not shown) [Example 371], the EC50 [2] was > 800 nM.

With `COCCn1c(-c2nnc(N[C@H]3N=C(c4ccccc4)c4ccccc4NC3=O)o2)nc2ccccc21` [Example 298] the EC50 [2] was > 800 nM.

`O=C1Nc2ccccc2C(c2ccccc2)=N[C@@H]1Nc1nnc(-c2nc3ccccn3c2N2CCOCC2)o1` [Example 163] was tested, and the EC50 [2] was > 800 nM.

`N#Cc1cnc(-c2nnc(NC3N=C(c4ccccc4)c4ccccc4NC3=O)o2)c(N2CCOCC2)c1` (stereo not shown) [Example 140] was tested, and the EC50 [2] was < 400 nM.

`COC[C@@H]1C[C@H]1c1sc(C(F)(F)F)nc1-c1nnc(N[C@H]2N=C(c3ccccc3)c3ccccc3NC2=O)o1` [Example 394] was tested, and the EC50 [1] was > 800 nM.

For `Cc1cc(-c2nnc(N[C@H]3N=C(c4ccccc4)c4ccccc4NC3=O)o2)n(C2CCOCC2)n1` [Example 432], the EC50 [2] was > 800 nM.

For `O=C1Nc2ccccc2C(c2ccccc2)=NC1Nc1nnc(-c2ncc(F)cc2N2CCOCC2)o1` (stereo not shown) [Example 138], the EC50 [1] was < 400 nM.

With `O=C1Nc2ccccc2C(c2ccccc2)=N[C@@H]1Nc1nnc(-c2ccc(C(F)(F)F)nc2N2C3CCC2COC3)o1` [Example 275] the EC50 [2] was > 800 nM.

`O=C1Nc2ccccc2C(c2ccccc2)=NC1Nc1nnc(-c2ccc(N3CCCC3)cc2)o1` (stereo not shown) [Example 184] was tested, and the EC50 [2] was 400 to 800 nM.

`COCc1nnc(NC2N=C(c3ccccc3)c3ccccc3NC2=O)o1` (stereo not shown) [Example 191] was tested, and the EC50 [2] was > 800 nM.

With `O=C1Nc2ccccc2C(c2ccccc2)=N[C@@H]1Nc1nnc(-c2cn(-c3ccc(F)cn3)nc2N2CCOCC2)o1` [Example 448] the EC50 [2] was < 400 nM.

For `O=C1Nc2ccccc2C(c2ccccc2)=NC1Nc1nnc(-c2ccncc2N2CCCCC2)o1` (stereo not shown) [Example 141], the EC50 [2] was > 800 nM.

With `N#Cc1ccc2nccc(-c3nnc(N[C@H]4N=C(c5ccccc5)c5ccccc5NC4=O)o3)c2c1` [Example 435] the EC50 [2] was > 800 nM.

For `O=C1Nc2ccccc2C(c2ccccc2)=NC1Nc1cc(N2CCOCC2)cnn1` (stereo not shown) [Example 463], the EC50 [2] was > 800 nM.

For `O=C1Nc2ccccc2C(c2ccccc2)=N[C@@H]1Nc1nnc(-c2ncc(C(F)(F)F)cc2N2CCOC3CC32)o1` (mixture of isomers) [Example 466], the EC50 [2] was < 400 nM.

With `O=C1Nc2ccccc2C(c2ccccc2)=N[C@@H]1Nc1nnc(-c2cnc(N3CCOCC3)cn2)o1` [Example 161] the EC50 [2] was > 800 nM.

`O=C1Nc2ccccc2C(c2ccccc2)=N[C@@H]1Nc1nnc(-c2ncsc2C2=CCOCC2)o1` [Example 347] was tested, and the EC50 [2] was < 400 nM.

For `COCCNc1sc(C(F)(F)F)nc1-c1nnc(N[C@H]2N=C(c3ccccc3)c3ccccc3NC2=O)o1` [Example 473], the EC50 [2] was < 400 nM.

With `O=C1Nc2ccccc2C(c2ccccc2)=N[C@@H]1Nc1nnc(-c2ccc(C3CC3)nc2N2CCOCC2)o1` [Example 154] the EC50 [2] was < 400 nM.

In the case of `COc1ccccc1-c1nc(-c2nnc(N[C@H]3N=C(c4ccccc4)c4ccccc4NC3=O)o2)c(N2CCOCC2)s1` [Example 342], the EC50 [2] is reported as < 400 nM.

In the case of `C[C@@H]1CN(c2cc(F)ccc2-c2nnc(N[C@H]3N=C(c4ccccc4)c4ccccc4NC3=O)o2)C[C@H](C)O1` [Example 284], the EC50 [2] is reported as > 800 nM.

With `O=C1Nc2ccccc2C(c2ccccc2)=N[C@@H]1Nc1nnc(-c2ncc(C3CC3)cc2N2CC3CCC(C2)O3)o1` [Example 321] the EC50 [2] was < 400 nM.

For `CS(=O)(=O)c1cnc(-c2nnc(N[C@H]3N=C(c4ccccc4)c4ccccc4NC3=O)o2)c(N2CCOCC2)c1` [Example 332], the EC50 [2] was > 800 nM.

Work on `N#Cc1ccc(-c2nnc(NC3N=C(c4ccccc4)c4ccccc4NC3=O)o2)nc1` (stereo not shown) [Example 24] yielded an EC50 [2] of 400 to 800 nM.

`O=C1Nc2ccccc2C(c2ccccc2)=NC1Nc1nnc(C2CCC2)o1` (stereo not shown) [Example 196] was tested, and the EC50 [2] was > 800 nM.

For `O=C1Nc2ccccc2C(c2ccccc2)=N[C@@H]1Nc1nnc(-c2nc(C3(C(F)(F)F)CC3)sc2N2CCOCC2)o1` [Example 460], the EC50 [2] was < 400 nM.

For `O=C1Nc2ccccc2C(c2ccccc2)=NC1Nc1nnc(-c2ncc(C(F)F)cc2N2CCOCC2)o1` (stereo not shown) [Example 461], the EC50 [2] was < 400 nM.

With `O=C1Nc2ccccc2C(c2ccccc2)=N[C@@H]1Nc1nnc(-c2cc3ccccc3nc2N2CCOCC2)o1` [Example 434] the EC50 [2] was < 400 nM.

`Cc1nc(-c2nnc(NC3N=C(c4ccccc4)c4ccccc4NC3=O)o2)ccc1F` (stereo not shown) [Example 110] was tested, and the EC50 [2] was > 800 nM.

With `Cn1cc(-c2nnc(N[C@H]3N=C(c4ccccc4)c4ccccc4NC3=O)o2)c(N2CCOCC2)n1` [Example 181] the EC50 [2] was < 400 nM.

With `COCCNc1ccc(-c2nnc(NC3N=C(c4ccccc4)c4ccccc4NC3=O)o2)cc1` (stereo not shown) [Example 117] the EC50 [2] was > 800 nM.

With `Cc1nc2ccc(-c3nnc(NC4N=C(c5ccccc5)c5ccccc5NC4=O)o3)cc2s1` (stereo not shown) [Example 187] the EC50 [2] was 400 to 800 nM.

With `O=C1Nc2ccccc2C(c2ccccc2)=N[C@@H]1Nc1nnc(-c2nc(-c3ccccc3F)sc2N2CCOCC2)o1` [Example 427] the EC50 [2] was < 400 nM.
